Data published in DBAASP.
Converted amounts (≈) assume the structure as drawn. Values belong to the compound of their own block, whether it stands above or below them.

How the values were obtained:
Assay in all cases: ≥ marks a high value that may be exact or a test limit, other limits are often not marked, values filed in µg/mL are converted to µM
[1] = system: Pseudomonas aeruginosa ATCC 9027
[2] = system: Staphylococcus aureus ATCC 6538
Candida albicans = system: Candida albicans
[3] = system: Escherichia coli ATCC 25922
Klebsiella pneumoniae = system: Klebsiella pneumoniae
[4] = system: Staphylococcus aureus ATCC 25923
Staphylococcus aureus = system: Staphylococcus aureus
Acinetobacter baumannii = system: Acinetobacter baumannii
[5] = system: Klebsiella pneumoniae ATCC 700603
Bacillus subtilis = system: Bacillus subtilis
Escherichia coli = system: Escherichia coli
[6] = system: Acinetobacter baumannii ATCC 19606
[7] = system: Enterococcus faecalis ATCC 29212
[8] = system: Staphylococcus aureus ATCC 29213
Micrococcus luteus = system: Micrococcus luteus
[9] = system: Bacillus subtilis ATCC 6633
[10] = system: Candida albicans ATCC 10231

Compound: CC(C)C[C@H](NC(=O)[C@H](C)NC(=O)[C@H](CCCCN)NC(=O)[C@H](CCCCN)NC(=O)[C@H](CC(C)C)NC(=O)[C@H](C)NC(=O)[C@H](CCCCN)NC(=O)[C@H](CC(C)C)NC(=O)[C@H](C)NC(=O)[C@H](CC(C)C)NC(=O)[C@H](C)NC(=O)[C@@H](N)Cc1ccccc1)C(N)=O [FALALKALKKAL]
MIC [1]: 38.9 µM (≈ 50 µg/mL)
MIC [2]: 3.89 µM (≈ 5 µg/mL)

MIC (Candida albicans): 10.7 µM (≈ 32 µg/mL)
MIC [3]: 2.68 µM (≈ 8.01 µg/mL)
MIC (Klebsiella pneumoniae): 10.7 µM (≈ 32 µg/mL)
MIC [4]: 2.68 µM (≈ 8.01 µg/mL)
MIC (Staphylococcus aureus): 2.68 µM (≈ 8.01 µg/mL)
Compound: CC[C@H](C)[C@H](NC(=O)[C@H](CC(N)=O)NC(=O)[C@H](CCCCN)NC(=O)[C@H](CC(C)C)NC(=O)[C@H](Cc1ccccc1)NC(=O)[C@@H](NC(=O)[C@H](CCCCN)NC(=O)[C@H](Cc1c[nH]c2ccccc12)NC(=O)[C@H](CO)NC(=O)[C@H](C)N)C(C)C)C(=O)NCC(=O)N[C@@H](CCCCN)C(=O)N[C@@H](C)C(=O)N[C@@H](C)C(=O)NCC(=O)N[C@@H](CCCCN)C(=O)N[C@@H](C)C(=O)N[C@H](C(=O)N[C@@H](CC(C)C)C(=O)N[C@@H](CC(N)=O)C(=O)N[C@@H](CO)C(=O)N[C@H](C(=O)N[C@H](C(=O)N[C@@H](CC(=O)O)C(=O)N[C@@H](CCSC)C(=O)N[C@H](C(=O)N[C@@H](CC(N)=O)C(=O)N[C@@H](CCC(N)=O)C(N)=O)C(C)C)[C@@H](C)O)C(C)C)C(C)C [ASWKVFLKNIGKAAGKAVLNSVTDMVNQ]

MIC (Acinetobacter baumannii): ≥ 64 µM
MIC [3]: > 64 µM
MIC [5]: > 64 µM
MIC [1]: 4 µM (≈ 6.49 µg/mL)
MIC [4]: > 64 µM
Compound: CC[C@H](C)[C@H](NC(=O)[C@H](Cc1ccc(O)cc1)NC(=O)[C@H](CCCCN)NC(=O)[C@H](CCCCN)NC(=O)[C@H](CC(C)C)NC(=O)[C@H](CC(C)C)NC(=O)[C@H](CCCCN)NC(=O)[C@H](CCCCN)NC(=O)[C@@H](NC(=O)[C@H](CC(C)C)NC(=O)[C@@H](N)CCCCN)C(C)C)C(=O)N[C@H](C(=O)N[C@@H](Cc1ccccc1)C(=O)O)[C@@H](C)O [KLVKKLLKKYITF]

Compound: CC(C)C[C@H](NC(=O)[C@H](CCCCN)NC(=O)[C@H](CCCCN)NC(=O)[C@H](C)NC(=O)[C@H](CC(C)C)NC(=O)[C@H](CCCCN)NC(=O)[C@H](C)NC(=O)[C@H](CCCCN)NC(=O)[C@H](CCCCN)NC(=O)[C@H](C)NC(=O)[C@H](CC(C)C)NC(=O)[C@H](CCCCN)NC(=O)[C@H](CCCCN)NC(=O)[C@H](C)NC(=O)[C@@H](N)Cc1ccccc1)C(N)=O [FAKKLAKKAKLAKKL]
MIC [1]: 59.3 µM (≈ 99.9 µg/mL)
MIC [2]: 119 µM (≈ 200 µg/mL)

Compound: CC(C)C[C@H](NC(=O)[C@H](CCCCN)NC(=O)[C@H](CC(C)C)NC(=O)[C@H](C)NC(=O)[C@H](CCCCN)NC(=O)[C@H](C)NC(=O)[C@H](CC(C)C)NC(=O)[C@H](CC(C)C)NC(=O)[C@H](CCCCN)NC(=O)[C@H](CCCCN)NC(=O)[C@H](C)NC(=O)[C@@H](N)Cc1ccccc1)C(N)=O [FAKKLLAKALKL]
MIC [1]: 149 µM (≈ 200 µg/mL)
MIC [2]: > 149 µM

MIC (Candida albicans): > 218 µM
MIC [3]: > 218 µM
MIC (Klebsiella pneumoniae): > 189 µM
MIC [4]: > 218 µM
Compound: CC[C@H](C)[C@H](NC(=O)[C@@H](NC(=O)[C@H](Cc1cnc[nH]1)NC(=O)[C@@H]1CCCN1C(=O)[C@@H](NC(=O)[C@H](CC(C)C)NC(=O)[C@H](CO)NC(=O)[C@H](CC(C)C)NC(=O)[C@@H](N)Cc1ccccc1)[C@@H](C)CC)C(C)C)C(=O)N[C@@H](CO)C(=O)N[C@@H](C)C(=O)N[C@H](C(=O)N1CCC[C@H]1C(=O)N[C@@H](Cc1cnc[nH]1)C(=O)N[C@H](C(=O)N[C@H](C(=O)N[C@@H](CC(N)=O)C(=O)N[C@@H](C)C(=O)N[C@@H](CC(C)C)C(=O)N[C@@H](CO)C(=O)N[C@@H](CC(N)=O)C(=O)N[C@@H](CC(C)C)C(N)=O)C(C)C)C(C)C)[C@@H](C)CC [FLSLIPHVISAIPHVVNALSNL]

MIC (Bacillus subtilis): ≥ 40 µM
MIC (Escherichia coli): > 53.4 µM
MIC (Staphylococcus aureus): 53.3 µM (≈ 94.1 µg/mL)
Compound: CC[C@H](C)[C@H](NC(=O)[C@H](CC(C)C)NC(=O)[C@H](C)NC(=O)[C@@H]1CCCN1C(=O)[C@H](CC(C)C)NC(=O)CN)C(=O)N[C@@H](CO)C(=O)N[C@@H](Cc1c[nH]c2ccccc12)C(=O)N[C@@H](CO)C(=O)N[C@@H](CCCCN)C(=O)N[C@@H](CCCN=C(N)N)C(=O)N[C@@H](CCCCN)C(=O)N[C@@H](CCCN=C(N)N)C(=O)N[C@@H](CCC(N)=O)C(=O)N[C@@H](CCC(N)=O)C(N)=O [GLPALISWSKRKRQQ]

MIC [6]: > 64 µM
MIC [7]: > 64 µM
MIC [3]: > 64 µM
MIC [8]: 32 µM (≈ 42.5 µg/mL)
Compound: CC(C)C[C@H](NC(=O)[C@@H](NC(=O)[C@H](CCCN=C(N)N)NC(=O)[C@H](CO)NC(=O)[C@H](CC(C)C)NC(=O)[C@H](C)NC(=O)[C@H](CC(N)=O)NC(=O)CNC(=O)[C@H](CC(C)C)NC(=O)[C@H](C)NC(=O)CNC(=O)[C@H](CC(C)C)NC(=O)[C@@H](N)Cc1ccccc1)C(C)C)C(N)=O [FLGALGNALSRVL]

MIC (Micrococcus luteus): 21.9 µM (≈ 25 µg/mL)
Compound: CC[C@H](C)[C@H](NC(=O)CNC(=O)[C@H](CO)NC(=O)[C@H](CC(C)C)NC(=O)[C@H](C)NC(=O)[C@H](CC(=O)O)NC(=O)[C@H](CC(C)C)NC(=O)[C@H](CC(C)C)NC(=O)CN)C(=O)N[C@@H](CC(C)C)C(=O)NCC(=O)N[C@@H](CC(C)C)C(N)=O [GLLDALSGILGL]

Compound: CC(C)C[C@H](NC(=O)[C@H](C)NC(=O)[C@H](CCCCN)NC(=O)[C@H](CCCCN)NC(=O)[C@H](C)NC(=O)[C@H](CCCCN)NC(=O)[C@H](CCCCN)NC(=O)[C@H](CC(C)C)NC(=O)[C@H](C)NC(=O)[C@H](CCCCN)NC(=O)[C@H](CCCCN)NC(=O)[C@H](C)NC(=O)[C@H](CC(C)C)NC(=O)[C@H](C)NC(=O)[C@@H](N)Cc1ccccc1)C(N)=O [FALAKKALKKAKKAL]
MIC [1]: 15.3 µM (≈ 25 µg/mL)
MIC [2]: 61.4 µM (≈ 99.9 µg/mL)

MIC (Candida albicans): 100 µM (≈ 268 µg/mL)
MIC (Escherichia coli): 20 µM (≈ 53.6 µg/mL)
MIC (Staphylococcus aureus): 100 µM (≈ 268 µg/mL)
Compound: CC[C@H](C)[C@H](NC(=O)[C@H](CCCCN)NC(=O)[C@H](CS)NC(=O)[C@H](C)NC(=O)[C@@H](NC(=O)[C@H](Cc1ccccc1)NC(=O)CNC(=O)[C@H](CC(C)C)NC(=O)CNC(=O)[C@@H](NC(=O)[C@H](CCCN=C(N)N)NC(=O)CNC(=O)[C@H](CC(C)C)NC(=O)[C@H](CC(N)=O)NC(=O)[C@H](CCCCN)NC(=O)[C@H](CC(C)C)NC(=O)[C@@H](NC(=O)[C@H](CO)NC(=O)[C@H](CC(C)C)NC(=O)[C@H](CCSC)NC(=O)[C@@H](N)CO)C(C)C)C(C)C)C(C)C)C(=O)N[C@@H](CC(N)=O)C(=O)N[C@@H](CCCCN)C(=O)N[C@@H](CCC(N)=O)C(=O)N[C@@H](CS)C(=O)O [SMLSVLKNLGRVGLGFVACKINKQC]

MIC (Bacillus subtilis): 22.5 µM (≈ 34.4 µg/mL)
MIC (Escherichia coli): > 100 µM
Compound: CC[C@H](C)[C@H](N)C(=O)N[C@@H](CC(N)=O)C(=O)N[C@@H](Cc1ccccc1)C(=O)N[C@@H](CC(C)C)C(=O)N[C@@H](CCCCN)C(=O)N[C@@H](CC(C)C)C(=O)NCC(=O)N[C@@H](CCCCN)C(=O)N[C@@H](CCCCN)C(=O)N[C@H](C(=O)N[C@@H](CC(C)C)C(=O)NCC(=O)N[C@@H](C)C(=O)N[C@@H](CC(C)C)C(N)=O)[C@@H](C)CC [INFLKLGKKILGAL]

MIC [6]: > 32 µM
MIC (Acinetobacter baumannii): ≥ 32 µM
MIC [3]: 32 µM (≈ 69.5 µg/mL)
MIC (Escherichia coli): > 32 µM
MIC [8]: 32 µM (≈ 69.5 µg/mL)
MIC (Staphylococcus aureus): > 32 µM
Compound: C[C@H](NC(=O)[C@@H]1CCCN1C(=O)[C@H](CCCN=C(N)N)NC(=O)[C@H](Cc1ccc(O)cc1)NC(=O)CNC(=O)[C@H](CC(N)=O)NC(=O)[C@@H](N)CO)C(=O)N[C@@H](Cc1ccc(O)cc1)C(=O)N[C@@H](CCCN=C(N)N)C(=O)N1CCC[C@H]1C(=O)N[C@@H](C)C(=O)N[C@@H](Cc1ccc(O)cc1)C(=O)N[C@@H](CCCN=C(N)N)C(=O)N1CCC[C@H]1C(=O)N[C@@H](CO)C(=O)N[C@@H](Cc1ccc(O)cc1)C(=O)N[C@@H](CCCN=C(N)N)C(=O)N1CCC[C@H]1C(N)=O [SNGYRPAYRPAYRPSYRP]

MIC [9]: 27.3 µM (≈ 37.5 µg/mL)
MIC [10]: 54.7 µM (≈ 75 µg/mL)
MIC [3]: 54.7 µM (≈ 75 µg/mL)
MIC [4]: > 72.9 µM
Compound: CC(C)C[C@H](NC(=O)[C@@H]1CCCN1C(=O)[C@H](CCCCN)NC(=O)[C@@H]1CCCN1C(=O)[C@H](Cc1ccc(O)cc1)NC(=O)[C@H](CCCCN)NC(=O)[C@H](Cc1c[nH]c2ccccc12)NC(=O)[C@@H](N)CCCN=C(N)N)C(=O)N[C@@H](CCCCN)C(=O)N[C@@H](CCCN=C(N)N)C(=O)O [RWKYPKPLKR]

MIC (Bacillus subtilis): 20 µM (≈ 35.2 µg/mL)
MIC (Escherichia coli): 25 µM (≈ 44 µg/mL)
Compound: CC[C@H](C)[C@H](NC(=O)[C@H](CCCCN)NC(=O)[C@H](CCCCN)NC(=O)[C@H](Cc1c[nH]c2ccccc12)NC(=O)[C@@H](NC(=O)[C@@H](N)CC(N)=O)[C@@H](C)CC)C(=O)N[C@@H](Cc1ccccc1)C(=O)N[C@@H](CCC(=O)O)C(=O)N[C@@H](CCCCN)C(=O)N[C@H](C(=O)N[C@@H](CCCCN)C(=O)N[C@@H](CC(N)=O)C(=O)N[C@@H](CC(C)C)C(=O)N[C@H](C(N)=O)C(C)C)C(C)C [NIWKKIFEKVKNLV]
